Results reported in patent publication US20050124618A1, “Methods of modulating angiogenesis and cancer cell proliferation” (priority 2003, published 2005).
Entries after “also recorded” stand apart in the source; their conditions may differ.

How the values were obtained:
HUVECs [1] = assay: HUVECs proliferation assay (CellTiter96 AQueous One); assay type: cell-based, human
Description: HUVECs were seeded onto a 96-well plate at 1×10^4 cells/well. […] Organic solvent concentration never exceeded 0.1% of total culture volume. […] 20 μl of Aqueous One reagent was added to the 100 μl medium in each well. The plates were incubated for 2 hours at 37° C. in a humidified incubator. Absorbance was recorded at 490 nm using a 96-well Bio Kinetics Reader EL340 (Bio-TEK, Winooski, Vt.). The data represent changes in percent absorbance of treated cultures compared with control cells. Three different experiments were carried out, and each point was determined in triplicate.

CYP4A11 mRNA = assay: RT-PCR of CYP4A11 mRNA in U251 cultures; assay type: cell-based, human; conditions: 10 μM HET0016 for 24 hr
Description: EtOH-treated cultures were used as solvent controls. Briefly, total RNA was isolated with Trizol reagent (Invitrogen) and 1-2 μg RNA was used to synthesize cDNA using a First Strand synthesis kit (Invitrogen). We used PCR primers that specifically recognize CYP4A11, and β-actin-specific primers. A 1 μCi ^32P per sample was added to Platinum PCR Supermix (Invitrogen). The PCR conditions used to amplify CYP4A 11 and β-actin consisted of a precycle of 95° C for 3 min followed by 35 cycles of 95° C for 45 s, 52° C. for 30 s, and 72° C. for 2 min, with final extension at 72° C. for 10 min. The primers used were: β-actin forward primer, 5′-TGCGTGACATTAAGGAGAAG-3′ (SEQ ID NO:3); β-actin reverse primer, 5′-GCT CGT AGC TCT TCT CCA-3′ (SEQ ID NO:4); CYP4A11 forward primer, 5′-CCACCTGGACCAGAGGCCCTACACCACC-3′ (SEQ ID NO:5); CYP4A11 reverse primer, 5′-AGGATATGGGCAGACAGGAA-3′(SEQ ID NO:6). PCR products were subjected to electrophoresis in 5% bis-acrylamide gels and visualized by autoradiography.

VEGF = assay: Western blot of VEGF protein expression in TA muscle; assay type: in vivo, rat
Description: Western blot analysis to detect the presence of VEGF protein: The 100-mg TA muscle specimens were homogenized, and the protein was suspended in potassium buffer (10 mM). Five micrograms of protein (as determined by a protein assay kit, Bio-Rad; Hercules, Calif.) from the TA and a tumor cell line known to express VEGF at high levels (C6, American Type Culture Collection, 107-CCL) were separated on a 12% denaturing polyacrylamide gel. The gels were transferred to a nitrocellulose membrane, which was blocked overnight in 5% nonfat dry milk diluted in Tris-buffered saline (50 mM Tris and 750 mM NaCl, pH 8) with 0.08% Tween 20 (Bio-Rad). The blots were then incubated with a […] antibody to a peptide derived from the human VEGF sequence (1:1,000 dilution, clone G143-850, Pharmingen) for 2 h at room temperature. Washed blots were then incubated with goat anti-mouse secondary antibody at a dilution of 1:1,000 for 1 h at room temperature and then subjected to a SuperSignal West Dura chemiluminescence substrate (Pierce; Rockford, Ill.) detection system. Membranes were exposed to X-ray film (Fuji Medical; Stamford, Conn.) for 15 to 30 s and developed using a Kodak M35 X-Omat processor. For the quantitative VEGF analysis, film was always exposed for a period of time that ensured that all signals were within the linear range of the detection of the film. The VEGF band intensity was quantified using a morphometry imaging system (Metamorph, Universal Imaging; West Chester, Pa.), and values are expressed as a percentage of the C6 tumor cell standard.

HUVECs [2] = assay: Proliferation of normal HUVECs (comparison with U251); assay type: cell-based, human; conditions: 10 μM HET0016, 48 hrs; DDMS concentration not given
Description: Mean values±SD from three separate experiments, each performed in triplicate, are presented. *** indicates p<0.001 from the respective control values.
Cell Proliferation Assays: Proliferation studies were performed with cultures plated at a density that ensured exponential growth for at least 5 days. Growth medium was generally replaced by serum-free medium 24 hr after plating. Cells were treated with various concentrations of a given compounds for 24 or 48 hr as described in the Methods. […] Organic solvent never exceeded 0.1% of total culture volume. Cells were harvested by exposure to 0.05% trypsin/EDTA and counted using a hemocytometer.

9L gliosarcoma tumors = assay: Growth of 9L gliosarcoma brain tumors in rats (tumor volume); assay type: in vivo, rat
Description: Tumor Implantation: Before implantation, 90% confluent 9L cells were trypsinized and centrifuged. The cell pellet was resuspended in DMEM+10% FBS and counted using a hemocytometer. The concentration of the 9L cells was adjusted to 1×10^4 cells/5 μl of medium. p The brain tumors were seeded by injecting the 9L cell suspensions into the frontal cerebral cortex of Fisher 344 rats that were purchased from Charles River Laboratories (Wilmington, Mass.) as follows. The rats were anesthetized with ketamine (80 mg/Kg, im) and Xylazine (13 mg/Kg), the head was immobilized in a stereotactic frame (David Kopf Instruments, Tujunga, Calif.) and the skull was exposed. A small hole was drilled in the skull 2 mm lateral and 2.5 mm anterior of the bregma, and 5 μl of the 9L gliosarcoma cell suspension were injected 3.5 mm into to cerebral cortex over a 5 min period using a 10 μl Hamilton (#2701) syringe attached to a 26 gauge needle. The hole was sealed with bone wax and the incisions were closed. […] The brains were removed and stored in 10% formalin. […]
Images of H&E stained sections containing tumor were captured using a SONY CCD camera using 2× objective. Using the AIS Image Analysis System (Imaging Research, St. Catherine, ON, Canada) software, the area of tumor in each section was manually outlined and measured in mm^2. […]

CCCCc1ccc(N=CNO)c(C)c1 [HET0016, N-hydroxy-N′-(4-butyl-2 methylphenyl) formamidine]
effect on the proliferative response of HUVECs to VEGF (HUVECs [1]; 250 ng/ml VEGF + 10 μM HET0016, 24 hours): abolished; also recorded: blocked the known proliferative response to VEGF; also recorded: blocks the mitogenic activity of VEGF
effect on basal proliferation rate of HUVECs (HUVECs [1]; 10 μM HET0016): did not alter basal proliferation rate
CYP4A11 transcript levels (CYP4A11 mRNA): decreased
effect on increases in VEGF protein expression induced by electrical stimulation (VEGF; 7 days stimulation): did not block
effect on baseline VEGF expression (VEGF; 7 days treatment): Neither HET0016 nor ABT had any effect
effect on basal growth or proliferation of normal HUVECs (HUVECs [2]): Neither DDMS or HET0016 had any effect; also recorded: had no effect on the basal growth or proliferation; also recorded: had no effect on the proliferation
reduction of the volume of the brain tumor compared to control animals (9L gliosarcoma tumors; 9L cells in rat forebrain, HET0016 10 mg/kg/day sc for 15 days, b179 prints 1 mg/Kg/day, ip, about 2 weeks): 80%
appearance of rats and tumor size at necropsy (9L gliosarcoma tumors; 17 days after implantation of the tumor): looked healthier; also recorded: much smaller tumor at necropsy
